Columns and labels:
[1] = Staining of topical penetration sites of the skin with gentian violet solution; set-up: species or system nude mouse
Method: Staining of topical penetration sites of the skin: the nude mouse skin topically pretreated by three groups, including the sonophoresis group, the 2 mg spicule group, and the group using sonophoresis and then using the spicules (the method is the same as the aforementioned method), a gentian violet solution is added into the donor compartment, stained for 24 hours, and washed by an ethanol solution, and the residue liquid on the surface is absorbed with absorbent paper, a penetration situation of a surface of the stratum corneum layer for the staining solution is observed, the stratum corneum layer and the epidermal layer of the skin are then scrapped by a blade, and a penetration situation of the dermis layer for the staining solution is observed.

[2] = test system: venous thrombus; assay: Rabbit ear thrombus model, topical low-molecular-weight heparin therapy; format: in vivo, New Zealand rabbit; details: 48 hours; for state of thrombus in blood vessel (slice, FIG. 7): 300 U/kg topical
Method: An experimental method: • A topical injection of thrombin is used to establish an animal model of a rabbit ear thrombus: hair of an ear of the New Zealand rabbit is carefully shaven off, a blood vessel section from an external ear vein with a length of about 2 cm and having fewer branches is selected, 40 U of the thrombin is injected into the blood vessel section, and a hemostatic clip is used to block a blood flow of the blood vessel section at a proximal end of a heart. After 2 hours, the blood is completely coagulated to form a venous thrombus, and the hemostatic clip is then loosen. A length of the venous thrombus is measured and recorded, and the rabbit ear successfully modeled is sliced into a slice by the cryostat microtome. After the slice is stained by a hematoxylin and eosin (HE) tissue staining method and fixed by the resin, and the slice is mounted for observation. With respect to the various administration methods, the rabbits successfully modeled are divided into a therapy group for a proximal venous thrombus and a therapy group for a distal venous thrombus, and the rabbits are topically treated by the low-molecular-weight heparin (300 U/kg rabbit body weight) for therapy. […] A pretreatment method is the same as described with respect to in vitro.

CN(C)c1ccc(C(=C2C=CC(=[N+](C)C)C=C2)c2ccc(N(C)C)cc2)cc1 [staining solution, gentian violet]
infiltration of staining solution into the dermis layer ([1]; sonophoresis alone or spicules alone, stained 24 hours (FIGS. 6D and 6E)): almost no residue staining solution in the dermis layer
infiltration of staining solution into the dermis layer ([1]; sonophoresis and spicules, stained 24 hours, stratum corneum and epidermal layer scraped off (FIG. 6F)): a large amount of the staining solution can still infiltrate into the dermis layer

dalteparin [low-molecular-weight heparin]
state of thrombus in blood vessel (slice, FIG. 7) ([2]; sonophoresis then spicules): almost completely dissolved
state of thrombus in blood vessel (slice, FIG. 7) ([2]; spicules alone): not completely dissolved
thrombus dissolvability degree compared with intravenous injection (FIG. 8B) ([2]; distal venous thrombus, sonophoresis then spicules at distal end): no significant difference
thrombus length variation (FIG. 8A) ([2]; proximal venous thrombus, sonophoresis then spicules): basically dissolved

Reference: patent US12691175B2, “Drug transdermal delivery system” (Xiamen University, priority 2019, dated 2026)
